Test system: Nx rats (5/6 nephrectomy, hypertensive chronic kidney disease)
Assay: Nx rats treated with various HIF prolyl hydroxylase inhibitors, change in systolic blood pressure after four weeks, Example 4
Type: in vivo, rat
Experimental: A characteristic pathophysiology found in the uremic chronic kidney disease (CKD) population is hypertension. […] (Priyadarshi et al. (2002) Kidney Int 61:542-546; Coleman et al. (2006) Proc Natl Acad Sci USA 103:5965-5970.) The surgical procedure used to generate the rat remnant kidney was performed according to modification of the procedure described by Priyadarshi et al. (supra) or according to modification of the procedure described by Tanaka et al. (2005, Lab Invest 85:1292-1307). Separate studies used either male Sprague Dawley rats (280-300 g) or female Wistar rats (220-250 g).
Animals were divided into two groups of which one group (sham) underwent sham surgery and the other group (Nx) was subjected to 5/6 nephrectomy as follows. Animals were anesthetized under isoflurane, and a midline abdominal incision was made, followed by blunt dissection of the renal pedicles. Two or three branches of the left renal artery were ligated to infarct two thirds of the left kidney, while the right kidney underwent simultaneous nephrectomy. The infarct was verified by observing the change in kidney color. Animal body temperature was maintained constant, and warm (˜37° C.) saline (1.0 mL) was administered directly into the abdomen. Thereafter, the incision was sutured and the animal was allowed to recover and have free access to regular food and water. Animal body weight and mortality were closely monitored.
Starting 35 days after surgery, Nx and sham animals were randomly divided into groups and treated with either vehicle or compound A. Compound was dosed three times per week by oral gavage at 20 or 40 mg/kg compound per dose. Blood pressure (BP) was measured using a Kent XBP1000 system (Kent Scientific Corp., Torrington, Conn.) or a Muromachi tail-cuff blood pressure system (Muromachi Kikai Co., Ltd., Tokyo, Japan), both having volume/pressure recording technology and used according to the manufacturer's instruction. Rats were slightly warmed under a lamp and conditioned carefully before the measurement. BP was recorded as the mean value of 3 separate measurements obtained at each session and reported herein as mean±SEM. Results are compared using 1-way analysis of variance (ANOVA) and Student-Newman-Keuls method (SigmaStat, SPSS Science, Chicago, Ill.).
In another series of experiments, rats subjected to 5/6 nephrectomy were treated 35 days after surgery according to the dosing schedule described in Example 3 above with a HIF prolyl hydroxylase inhibitor. Individual compound selected from the group consisting of compounds A and C-K were administered by oral gavage at 8, 20, 30, or 40 mg/kg (see Table 1 and Table 2). Systolic blood pressure was recorded at day 35 (baseline) and again immediately following the last dose of compound. Table 1 and Table 2 show changes in systolic blood pressure following four weeks of oral administration of various compounds of the present invention to Nx rats.

## COc1ccc(Oc2ccc3c(O)c(C(=O)NCC(=O)O)ncc3c2)cc1 [C, {[4-hydroxy-7-(4-methoxy-phenoxy)-isoquinoline-3-carbonyl]-amino}-acetic acid]
30 mg/kg oral
  SBP (mmHg) Change from Baseline: −13.72 mmHg
  SBP (mmHg) Change from Vehicle: −34.03 mmHg

## CC(C)Oc1ccc2c(O)c(C(=O)NCC(=O)O)nc(C#N)c2c1 [Compound D, [(1-cyano-4-hydroxy-7-isopropoxy-isoquinoline-3-carbonyl)-amino]-acetic acid]
8 mg/kg oral
  SBP (mmHg) Change from Baseline: −22.14 mmHg
  SBP (mmHg) Change from Vehicle: −12.4 mmHg
20 mg/kg oral
  SBP (mmHg) Change from Baseline: −9.25 mmHg
  SBP (mmHg) Change from Vehicle: −24.73 mmHg

## COc1cccc(Cn2ccc3c(O)c(C(=O)NCC(=O)O)nc(C#N)c32)c1 [E, {[7-cyano-4-hydroxy-1-(3-methoxy-benzyl)-1H-pyrrolo[2,3-c]pyridine-5-carbonyl]-amino}-acetic acid]
20 mg/kg oral
  SBP (mmHg) Change from Baseline: −7.12 mmHg
  SBP (mmHg) Change from Vehicle: −18.55 mmHg

## N#Cc1nc(C(=O)NCC(=O)O)c(O)c2ccn(Cc3ccc4ccccc4c3)c12 [F, [(7-cyano-4-hydroxy-1-naphthalen-2-ylmethyl-1H-pyrrolo[2,3-c]pyridine-5-carbonyl)-amino]-acetic acid]
8 mg/kg oral
  SBP (mmHg) Change from Baseline: −10.58 mmHg
  SBP (mmHg) Change from Vehicle: −23.88 mmHg

## N#Cc1nc(C(=O)NCC(=O)O)c(O)c2ccn(Cc3ccccc3F)c12 [G, {[7-cyano-1-(2-fluoro-benzyl)-4-hydroxy-1H-pyrrolo[2,3-c]pyridine-5-carbonyl]-amino}-acetic acid]
8 mg/kg oral
  SBP (mmHg) Change from Vehicle: −19.27 mmHg

## COc1ccc(Cn2c(Cl)c(Cl)c3c(O)c(C(=O)NCC(=O)O)nc(C#N)c32)cc1 [H, {[2,3-dichloro-7-cyano-4-hydroxy-1-(4-methoxy-benzyl)-1H-pyrrolo[2,3-c]pyridine-5-carbonyl]-amino}-acetic acid]
20 mg/kg oral
  SBP (mmHg) Change from Vehicle: −15.73 mmHg

## N#Cc1nc(C(=O)NCC(=O)O)c(O)c2c(Oc3ccccc3)cccc12 [I, [(1-cyano-4-hydroxy-5-phenoxy-isoquinoline-3-carbonyl)-amino]-acetic acid]
20 mg/kg oral
  SBP (mmHg) Change from Vehicle: −11.00 mmHg

## Cc1cccc(C)c1Oc1ccc2c(O)c(C(=O)NCC(=O)O)nc(C#N)c2c1 [J, {[1-cyano-7-(2,6-dimethyl-phenoxy)-4-hydroxy-isoquinoline-3-carbonyl]-amino}-acetic acid]
8 mg/kg oral
  SBP (mmHg) Change from Vehicle: −2.66 mmHg

## COc1ccc(Cn2cc(Br)c3c(O)c(C(=O)NCC(=O)O)nc(C#N)c32)cc1 [K, {[3-bromo-7-cyano-4-hydroxy-1-(4-methoxy-benzyl)-1H-pyrrolo[2,3-c]pyridine-5-carbonyl]-amino}-acetic acid]
8 mg/kg oral
  SBP (mmHg) Change from Vehicle: −19.92 mmHg
